This note sets out measurements from ChEMBL document CHEMBL5506057, “Discovery and Optimization of Potent, Efficacious and Selective Inhibitors Targeting EGFR Exon20 Insertion Mutations” (J Med Chem, 2024).

Data set [1] can be described thus: Lipophilicity, logD of compound in octanol and aqueous buffer at pH 7.4 incubated for 2 hrs by shake-flask method based LC-MS/MS analysis. Format: physicochemical.
The nature of data set [2]: Metabolic stability in human liver microsomes assessed as intrinsic clearance at 1 uM incubated for 30 mins in presence of NADPH by LC-MS/MS analysis. Format: ADME, Microsome. The conditions noted are these: read-out: CLH. (Liver microsomes are vesicles of endoplasmic reticulum, rich in cytochrome P450 enzymes.)
Data set [3] in a line: Metabolic stability in rat hepatocytes assessed as intrinsic clearance measured per 10^6 cells at 1 uM incubated for 120 mins by LC-MS/MS analysis. Type of data set: ADME, cell-based, Hepatocyte. Particulars: read-out: CLH.
Data set [4] is described as follows: Metabolic stability in CD-1 mouse hepatocytes assessed as intrinsic clearance measured per 10^6 cells at 1 uM incubated for 120 mins by LC-MS/MS analysis. The conditions noted are these: read-out: CLH. Type of data set: ADME, cell-based, Hepatocyte.
A short description of data set [5]: Duration (time) of SCID mouse free plasma concentration cover over EGFR insSVD cell IC50 at 50 mg/kg, po. Format: ADME, organism-based. The conditions noted are these: in vivo.
A short description of data set [6]: Inhibition of EGFR Ex20ins ASV mutant (unknown origin) transfected in human NCI-H2073 cells. Format: cell-based.
Data set [7] can be described thus: Inhibition of EGFR Ex20ins NPG mutant (unknown origin) transfected in human NCI-H2073 cells. Format: cell-based.
Data set [8] deals with T1, Tyrosine-protein kinase BTK (Homo sapiens, UniProt Q06187). The data set can be described thus: Inhibition of BTK (unknown origin) at 0.1 uM relative to control.
T1 sequence (Q06187 whole entry): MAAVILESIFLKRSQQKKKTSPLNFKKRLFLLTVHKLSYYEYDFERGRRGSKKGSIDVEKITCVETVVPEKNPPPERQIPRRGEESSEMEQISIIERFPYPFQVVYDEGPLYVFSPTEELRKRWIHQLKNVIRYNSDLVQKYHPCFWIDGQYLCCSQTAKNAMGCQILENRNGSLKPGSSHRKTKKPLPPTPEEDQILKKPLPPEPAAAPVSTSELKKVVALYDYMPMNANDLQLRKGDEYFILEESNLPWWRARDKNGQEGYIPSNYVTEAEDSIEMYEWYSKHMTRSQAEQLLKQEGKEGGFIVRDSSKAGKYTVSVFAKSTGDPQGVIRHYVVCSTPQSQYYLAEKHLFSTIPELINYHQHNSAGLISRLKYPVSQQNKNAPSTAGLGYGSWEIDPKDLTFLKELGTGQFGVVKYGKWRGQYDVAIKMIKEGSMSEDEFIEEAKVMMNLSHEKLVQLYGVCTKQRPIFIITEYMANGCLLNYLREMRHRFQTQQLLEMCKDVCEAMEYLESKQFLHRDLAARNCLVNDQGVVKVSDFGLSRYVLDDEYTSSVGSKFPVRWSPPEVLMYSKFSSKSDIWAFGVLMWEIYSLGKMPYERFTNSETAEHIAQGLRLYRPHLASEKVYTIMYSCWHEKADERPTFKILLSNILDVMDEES
For data set [9], the target named is T2, Receptor tyrosine-protein kinase erbB-4 (Homo sapiens, UniProt Q15303). The data set is described as follows: Inhibition of ERBB4 (unknown origin) at 0.1 uM relative to control.
T2 sequence (Q15303 whole entry): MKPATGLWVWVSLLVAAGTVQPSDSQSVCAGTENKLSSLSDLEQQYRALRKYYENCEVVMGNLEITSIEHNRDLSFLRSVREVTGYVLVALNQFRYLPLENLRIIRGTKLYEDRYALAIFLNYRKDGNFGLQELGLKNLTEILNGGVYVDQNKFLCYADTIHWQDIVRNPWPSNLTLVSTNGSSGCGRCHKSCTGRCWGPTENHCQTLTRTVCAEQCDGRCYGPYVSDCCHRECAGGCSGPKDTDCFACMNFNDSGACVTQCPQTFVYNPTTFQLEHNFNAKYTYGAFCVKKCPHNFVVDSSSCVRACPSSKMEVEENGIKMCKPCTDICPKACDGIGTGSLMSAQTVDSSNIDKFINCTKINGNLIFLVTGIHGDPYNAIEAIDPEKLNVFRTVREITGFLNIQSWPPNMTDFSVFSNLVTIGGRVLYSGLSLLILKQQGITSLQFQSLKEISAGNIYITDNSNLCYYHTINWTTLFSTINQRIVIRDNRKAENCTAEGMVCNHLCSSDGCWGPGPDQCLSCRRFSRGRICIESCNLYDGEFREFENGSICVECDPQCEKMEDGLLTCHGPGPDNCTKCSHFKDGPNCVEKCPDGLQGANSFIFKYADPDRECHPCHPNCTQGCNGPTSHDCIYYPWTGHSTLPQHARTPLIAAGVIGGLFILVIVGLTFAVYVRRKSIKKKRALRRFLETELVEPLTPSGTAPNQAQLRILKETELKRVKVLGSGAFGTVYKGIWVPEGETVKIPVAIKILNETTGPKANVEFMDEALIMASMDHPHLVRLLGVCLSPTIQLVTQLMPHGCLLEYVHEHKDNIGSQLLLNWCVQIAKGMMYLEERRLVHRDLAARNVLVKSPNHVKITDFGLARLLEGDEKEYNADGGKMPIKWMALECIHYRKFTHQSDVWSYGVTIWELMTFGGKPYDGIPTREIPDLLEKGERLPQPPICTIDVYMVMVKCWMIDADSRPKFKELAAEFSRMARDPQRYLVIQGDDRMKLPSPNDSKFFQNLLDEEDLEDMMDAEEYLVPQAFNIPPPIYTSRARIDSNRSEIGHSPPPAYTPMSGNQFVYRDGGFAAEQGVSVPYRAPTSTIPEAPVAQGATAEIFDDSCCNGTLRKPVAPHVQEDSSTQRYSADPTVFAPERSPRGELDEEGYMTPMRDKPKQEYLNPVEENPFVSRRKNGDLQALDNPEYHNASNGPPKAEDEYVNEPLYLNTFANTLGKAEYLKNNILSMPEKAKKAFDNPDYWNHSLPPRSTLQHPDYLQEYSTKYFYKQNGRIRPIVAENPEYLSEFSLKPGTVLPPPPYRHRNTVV
Data set [10] deals with TRAF2 and NCK-interacting protein kinase (Homo sapiens) (UniProt Q9UKE5). The data set can be described thus: Inhibition of TNIK (unknown origin) at 0.1 uM relative to control.
Data set [11] has as its target Misshapen-like kinase 1 (Homo sapiens) (UniProt Q8N4C8). The data set is described as follows: Inhibition of MINK1 (unknown origin) at 0.1 uM relative to control.
Data set [12] has as its target Tyrosine-protein kinase Blk (Homo sapiens) (UniProt P51451). The data set is described as follows: Inhibition of BLK (unknown origin) at 0.1 uM relative to control.
For data set [13], the target named is T1, Tyrosine-protein kinase BTK. The data set can be described thus: Inhibition of BTK (unknown origin).
For data set [14], the target named is T2, Receptor tyrosine-protein kinase erbB-4. The data set can be described thus: Inhibition of ERBB4 (unknown origin).
Data set [15] is described as follows: Antitumor activity against human NCI-H2073 cells harboring EGFR D770_N771insSVD mutant xenografted in female SCID mouse assessed as tumor growth inhibition at 100 mg/kg, po administered once daily for 14 days relative to control. Type of data set: functional. The conditions noted are these: NCI-H2073, 336 h, time 14 day, read-out: TGI.
Data set [16] can be described thus: Toxicity in female SCID mouse xenografted with human NCI-H2073 cells harboring EGFR D770_N771insSVD mutant assessed as body weight loss at 100 mg/kg, po administered once daily for 14 days. The conditions noted are these: in vivo, 336 h, time 14 day. Type of data set: organism-based. Background: Xenograft models place foreign cells or tissue in a host animal.

Data set [17] is described as follows: Antitumor activity against human NCI-H2073 cells harboring wildtype EGFR xenografted in female SCID mouse assessed as tumor growth inhibition at 100 mg/kg, po administered once daily for 15 days relative to control. Type of data set: functional. Particulars: NCI-H2073, 360 h, time 15 day, read-out: TGI.
Another data set relates to Mus musculus. The data set is described as follows: In vivo inhibition of EGFR phosphorylation in female SCID mouse xenografted with NCI-H2073 cells harboring EGFR D770_N771insSVD mutant at 100 mg/kg, po measured after 1 to 6 hrs by immunoblotting analysis. Type of data set: functional, organism-based. The conditions noted are these: time 1-6 hrs. Background: In western blotting, separated proteins are transferred to a membrane and probed.

Data set [18] is described as follows: Drug metabolism in human liver microsomes assessed as O-dealkylation mediated fluoro-phenolic metabolite formation incubated for 60 mins by LC-MS/MS analysis. Format: ADME, Microsome. The conditions noted are these: 1 h.
Another data set concerns MDR1, BCRP. The data set is described as follows: Efflux ratio of apparent permeability across basolateral to apical side over apical to basolateral side in MDCKII-MDR1-BCRP cells at 1 uM incubated for 90 mins. The conditions noted are these: dog. Type of data set: ADME, cell-based, Canis lupus familiaris.
For data set [19], the target named is T3, Epidermal growth factor receptor (Homo sapiens, UniProt P00533). The data set can be described thus: Inhibition of wildtype EGFR (unknown origin) phosphorylation transfected in human NCI-H2073 cells preincubated for 2 hrs followed by EGF stimulation for 10 mins by HTRF assay. Type of data set: cell-based.
T3 sequence (P00533 whole entry): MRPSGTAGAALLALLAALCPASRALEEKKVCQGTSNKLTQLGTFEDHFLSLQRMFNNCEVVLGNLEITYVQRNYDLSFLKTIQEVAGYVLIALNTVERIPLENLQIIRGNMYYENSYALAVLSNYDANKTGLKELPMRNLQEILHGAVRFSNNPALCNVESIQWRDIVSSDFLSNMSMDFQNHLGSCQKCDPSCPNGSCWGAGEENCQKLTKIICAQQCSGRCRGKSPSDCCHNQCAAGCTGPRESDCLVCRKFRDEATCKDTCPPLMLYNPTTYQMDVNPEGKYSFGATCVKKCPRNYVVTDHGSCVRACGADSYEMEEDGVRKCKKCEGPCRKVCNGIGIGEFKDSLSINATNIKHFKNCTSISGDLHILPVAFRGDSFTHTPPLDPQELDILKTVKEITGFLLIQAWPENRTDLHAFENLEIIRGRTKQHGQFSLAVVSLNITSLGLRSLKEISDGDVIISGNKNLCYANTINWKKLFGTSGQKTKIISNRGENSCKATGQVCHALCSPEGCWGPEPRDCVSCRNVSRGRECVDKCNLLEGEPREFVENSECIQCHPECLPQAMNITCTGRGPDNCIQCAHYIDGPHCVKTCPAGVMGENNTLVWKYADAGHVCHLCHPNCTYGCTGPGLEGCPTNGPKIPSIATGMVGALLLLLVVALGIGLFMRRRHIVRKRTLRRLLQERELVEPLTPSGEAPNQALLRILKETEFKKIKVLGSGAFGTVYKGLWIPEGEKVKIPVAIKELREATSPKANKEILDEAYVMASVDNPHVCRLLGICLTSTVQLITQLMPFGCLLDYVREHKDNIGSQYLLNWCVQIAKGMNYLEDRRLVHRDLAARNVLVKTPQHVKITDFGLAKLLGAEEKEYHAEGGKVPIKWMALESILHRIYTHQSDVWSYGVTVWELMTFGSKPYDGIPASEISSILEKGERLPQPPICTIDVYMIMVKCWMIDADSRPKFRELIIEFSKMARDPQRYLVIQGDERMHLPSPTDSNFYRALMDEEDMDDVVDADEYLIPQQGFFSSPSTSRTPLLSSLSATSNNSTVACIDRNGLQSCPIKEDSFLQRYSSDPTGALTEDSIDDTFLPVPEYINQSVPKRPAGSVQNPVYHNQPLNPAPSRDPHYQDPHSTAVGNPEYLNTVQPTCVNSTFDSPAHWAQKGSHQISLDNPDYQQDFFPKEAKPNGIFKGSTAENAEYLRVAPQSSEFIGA
Data set [20] has as its target T4, Epidermal growth factor receptor (Homo sapiens, UniProt P00533, D770-N771INSSVD). The data set can be described thus: Inhibition of EGFR D770_N771insSVD mutant (unknown origin) phosphorylation transfected in human NCI-H2073 cells incubated for 2 hrs by HTRF assay. Format: cell-based.
Data set [21] in a line: Selectivity ratio of IC50 for inhibition of wildtype EGFR (unknown origin) transfected in human NCI-H2073 cells preincubated for 2 hrs followed by EGF stimulation for 10 mins by HTRF assay to IC50 for inhibition of EGFR D770_N771insSVD mutant (unknown origin) transfected in human NCI-H2073 cells incubated for 2 hrs by HTRF assay. Type of data set: cell-based.
The next data set relates to MDR1. The data set can be described thus: Efflux ratio of apparent permeability across basolateral to apical side over apical to basolateral side in MDCKII-MDR1 cells at 1 uM incubated for 2 hrs by LC-MS/MS analysis. Format: ADME, cell-based, Canis lupus familiaris. The conditions noted are these: dog, MDCK-MDR1.
The target in data set [22] is Epidermal growth factor receptor (Homo sapiens, UniProt P00533, D770-N771INSNPG). The data set is described as follows: Inhibition of 6His-tagged TEV-GS fused EGFR D770_N771insNPG mutant (G696 to G1210 reisudes) (unknown origin) expressed in Sf21 cells using Poly(Glu,Tyr) peptide as substrate preincubated for 15 mins followed by substrate addition and measured after 30 mins in presence of ATP by ADP-Glo reagent based assay.

The target of data set [23] is T3, Epidermal growth factor receptor. The data set can be described thus: Inhibition of recombinant wildtype human N-terminal GST-tagged EGFR cytoplasmic domain (669 to 1210 residues) expressed in Sf21 insect cells using Poly(Glu,Tyr) peptide as substrate preincubated for 15 mins followed by substrate addition and measured after 50 mins in presence of ATP by ADP-Glo reagent based assay.

A short description of data set [24]: Selectivity ratio of Ki/Kinact for inhibition of EGFR D770_N771insNPG mutant (unknown origin) using AQT0099 as substrate to Ki/Kinact for inhibition of wildtype EGFR (unknown origin) using AQT0099 as substrate.
Data set [25] has as its target T3, Epidermal growth factor receptor. The data set can be described thus: Inhibition of wildtype EGFR (unknown origin) phosphorylation transfected in human NCI-H2073 cells preincubated for 2 hrs followed by EGF stimulation for 10 mins by ELISA. Format: cell-based.
Data set [26] addresses T4, Epidermal growth factor receptor. The data set can be described thus: Inhibition of EGFR D770_N771insSVD mutant (unknown origin) phosphorylation transfected in human NCI-H2073 cells incubated for 2 hrs by ELISA. Format: cell-based.
The nature of data set [27]: Selectivity ratio of IC50 for inhibition of wildtype EGFR (unknown origin) transfected in human NCI-H2073 cells preincubated for 2 hrs followed by EGF stimulation for 10 mins by ELISA to IC50 for inhibition of EGFR D770_N771insSVD mutant (unknown origin) transfected in human NCI-H2073 cells incubated for 2 hrs by ELISA. Format: cell-based.

Activity calls are given as the source filed them. No cut-off for these calls is given here.

T4 sequence (P00533 whole entry, looked up, stated change not applied): as the sequence (P00533 whole entry) above
Chain of Tyrosine-protein kinase Blk (Homo sapiens) (P51451 2-505 limits assumed): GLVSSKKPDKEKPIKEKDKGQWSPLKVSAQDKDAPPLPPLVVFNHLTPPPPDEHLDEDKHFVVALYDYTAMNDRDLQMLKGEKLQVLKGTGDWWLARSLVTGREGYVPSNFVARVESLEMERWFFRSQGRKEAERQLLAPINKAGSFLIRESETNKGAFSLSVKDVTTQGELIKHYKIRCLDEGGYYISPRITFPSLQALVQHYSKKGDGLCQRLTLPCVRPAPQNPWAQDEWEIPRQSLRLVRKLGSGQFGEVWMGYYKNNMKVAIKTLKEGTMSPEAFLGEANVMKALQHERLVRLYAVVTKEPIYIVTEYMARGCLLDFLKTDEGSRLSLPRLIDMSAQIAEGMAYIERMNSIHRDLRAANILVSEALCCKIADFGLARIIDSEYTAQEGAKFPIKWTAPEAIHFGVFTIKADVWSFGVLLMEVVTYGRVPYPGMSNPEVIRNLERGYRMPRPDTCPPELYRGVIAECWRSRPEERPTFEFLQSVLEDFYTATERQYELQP

Usually logD stands for the decadic logarithm of the distribution of all forms, ionised or not, between an organic phase and buffer at a given pH. The low end stands for a more hydrophilic compound, the high end for a more lipophilic compound. The IC50 is the concentration needed to halve the response being measured. As usually defined, the inhibition is the drop in the measured response relative to a control, in per cent. In the case of `C=CC(=O)N1CC[C@H](n2cc(-c3ccncc3)c(-c3cccc(/C=C/c4ncc(C5CC5)o4)c3)n2)C1`, the logD at 2 h in data set [1] came out at 4.8. In addition, in [2], the microsomal CLint at 1 µM was 214 µL/min/mg. In addition, the hepatocyte CLint at 1 µM stood at 43 µL/min/1e6 cells in [3] and 35 µL/min/1e6 cells in data set [4]. The same compound showed a Time in data set [5] of 12 h. The half-inhibitory concentration (IC50) in [6] was found to be 67 nM; in data set [7] it was 55 nM; in data set [13], 10 nM; in [14], 9 nM. In addition, the inhibition came to 99% in data set [8]; 99% in [9]; 57% in data set [10]; 55% in data set [11]; 51% in data set [12]. The results for the inhibition in vivo at 100 mg/kg in data set [15] and in data set [17] were 62% and 13%, respectively. Also, the Activity in data set [16] was < 10%. For the same compound, the inhibition entry in the data set on Mus musculus was “Active”.
Turning to `C=CC(=O)N1CC[C@H](n2cc(-c3ccncc3)c(-c3ccc(F)c(OCc4ccc5c(c4)CN(C)C5=O)c3)n2)C1`, the logD at 2 h in [1] amounted to 2.9. For the same compound, the microsomal CLint at 1 µM in data set [2] was > 300 µL/min/mg. For the same compound, the Drug metabolism result in data set [18] is listed as “Metabolite_Detected”.
What is called efflux ratio is the permeability from basolateral to apical divided by that in the opposite direction, in the common usage. `C=CC(=O)Nc1cc(Nc2nccc(-c3cn(C)c4ccccc34)n2)c(OC)cc1N(C)CCN(C)C` [OSIMERTINIB]: the efflux ratio at 1.5 h, 1 µM in the data set with MDR1, BCRP amounted to 3.2.
In data set [1], `C=CC(=O)N1CC[C@H](n2cc(-c3ccncc3)c(-c3cccc(/C=C/c4ccc5c(c4)CN(C)C5=O)c3)n2)C1` gave a logD at 2 h of 3.9. For the same compound, in data set [2], the microsomal CLint at 1 µM came to 200 µL/min/mg. Also, the IC50 in [19] is > 16000 nM; in data set [20], 220 nM. Also, in data set [21], the Ratio IC50 is > 73. For the same compound, the hepatocyte CLint at 1 µM in data set [3] was 28 µL/min/1e6 cells; in [4], 29 µL/min/1e6 cells. Moreover, the efflux ratio at 2 h, 1 µM with MDR1 was 29. In addition, the Time in [5] was 0 h.
For `C=CC(=O)N[C@H]1C=C(C)c2c(-c3cnc4ccccc4c3)c3c(N)ncnc3n2C1` [CLN-081], the IC50 in data set [22] was < 3 nM; in data set [23] it was < 3 nM; in data set [19] it was 77 nM; in [20], 21 nM; in [25] it was 190 nM; in [26], 57 nM. The results for the Ratio IC50 in [21] and in data set [27] were 3.6 and 3.4, respectively. In [24], the Selectivity ratio came to 0.79. The inhibition in vivo at 100 mg/kg amounted to 69% in [15] and 63% in [17]. The Activity in [16] is reported as < 10%. Further, the inhibition result in the data set on Mus musculus was “Active”.
